We go through one compound from patent publication US11160788B2, “Caspase-1 inhibition and uses thereof for prevention and treatment of neurological conditions” (priority 2016, dated 2021).

The target in data set [1] is T1, mouse recombinant Casp1 (Mus musculus, UniProt P29452).
T1 sequence (P29452 119-296 limits assumed): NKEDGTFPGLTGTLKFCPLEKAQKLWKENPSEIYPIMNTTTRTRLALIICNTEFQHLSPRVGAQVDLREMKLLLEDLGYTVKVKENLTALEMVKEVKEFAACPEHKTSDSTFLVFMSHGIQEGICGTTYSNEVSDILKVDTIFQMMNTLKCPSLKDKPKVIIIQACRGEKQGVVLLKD
T1 sequence (P29452 315-402 limits assumed): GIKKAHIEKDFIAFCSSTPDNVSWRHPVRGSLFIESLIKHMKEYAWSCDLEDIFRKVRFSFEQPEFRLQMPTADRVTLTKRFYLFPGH
Kind of data set: Caspase inhibition IC50, mouse recombinant Casp1. It is filed as biochemical. Particulars: read-out: IC50 against mouse Casp1. How it is done: (§1) FIG. 14: Selectivity and blood brain permeability of VX-765 and VRT-043198. (a-b) IC50 of VX-765 (a) and VRT-043198 (b) against human Casp1-10. (c-d) IC50 of VX-765 (c) and VRT-043198 (d) against mouse Casp1 and Casp11. (e) Blood brain barrier permeability and presence of VX-765 and VRT-043198 in 3 wild type and 4 J20 mice brain cortex and hippocampus and in plasma. Ratios of brain levels to plasma levels are calculated.

Data set [2] in a line: Blood brain barrier permeability, brain and plasma levels. It is filed as in vivo, mouse. The note with it: WT and J20 mice. How it is done: as §1
Data set [3] concerns J20 mice. In words: Synaptophysin immunostaining and synaptic gene mRNA, treated symptomatic J20 mice. It is filed as in vivo, mouse. Particulars: hippocampus, immunohistochemistry, 50 mg/kg, 8 month old. The source says: FIG. 12: VX-765 reverses loss of synaptophysin immunohistological staining in J20 mice. (a) Immunohistological micrographs from pre-treated 5 month old J20 and 8 month old vehicle or VX-765 treated WT or J20 mouse hippocampus and cortex. (b) Quantitative analysis comparing synaptophysin immunostaining density between WT+Vehicle (n=4), J20+Vehicle (n=4), and J20+VX-765 (n=4) in the hippocampus (F(2,9)=7.974, p=0.0102, ANOVA, Tukey's post-hoc, * p<0.05) and cortex.
To assess AD-like pathology, immunohistochemical analyses were performed to detect amyloid deposition (anti-AβF25276)^5,6, microglial (Iba1) activation^7, astrogliosis (GFAP), synaptophysin protein levels on coronal brain sections. Multiplex MSD ELISA was used to assess Aβ levels and 38,40, and 42 subtypes, and II-1β brain levels. RT-PCR was used to assess levels of human APP^Sw/Ind.

Data set [4] concerns J20 mice. In words: Open field, preventive treatment of pre-symptomatic J20 mice. Type of data set: in vivo, mouse. How it is done:
FIG. 21: Open-field assessment to assess hyperactivity in J20 mice. Mice were treated with vehicle (WT and J20) or 50 mg/kg VX-765 (J20) at 2 months of age for 1 month (3 injections per week×4 weeks=12 injections). Hyperactivity was assessed by measuring the distance travelled (a), the number of quadrant entries (b), and the % time moving (c), while anxiety was assessed by the % time spent in periphery (d).
Studies are done on 8 (pre-symptomatic) week old J20 and littermate WT controls injected with 50 mg/Kg VX-765 or vehicle. The 8 week old mice are injected for 4 weeks (3 injections per week) and monitored for memory deficits at 16 weeks of age and every 4 weeks thereafter until the mice reach 8 months of age. VX-765 delays the onset of cognitive deficits by at least 5 months in the J20 mouse.
(§2) We directly tested whether pre-symptomatic inhibition of inflammation in a mouse genetic model of Alzheimer disease can stem the progression of memory and behavioral deficits, and Alzheimer disease-like pathology. The J20 amyloid precursor protein Swedish/Indiana mutant mouse was treated at 2 months of age for a one month period with 50 mg/Kg Caspase-1 inhibitor VX-765 (FIG. 22a).

The subject of data set [5] is J20 mice. In words: Barnes maze, preventive treatment of pre-symptomatic J20 mice. Type of data set: in vivo, mouse.
Description: FIG. 23: Barnes maze to assess spatial memory in J20 mice. Barnes maze tested at washout at (a-c) 12 week (6 months of age) and (d-f) 20 week (8 months of age). (a,d) Learning to find the escape hatch over 4 days in seconds. (b,e) Primary latency to reach the escape hatch and primary errors to find the hatch. In (b) One-way ANOVA (F(2,29)=5.948, p=0.0068), in (e) One-way ANOVA (F(2,22)=7.2545, p=0.0038) followed by Dunnett's pot-hoc *p<0.05, ** p<0.01. (c,f) Probe test: number of pokes for each of the 20 holes of the Barnes maze when hatch hole is blocked. T indicates target hole where hatch was accessible during training.
as §2

For data set [6], the system named is J20 mice. In words: Iba1 and GFAP immunostaining, preventive treatment of J20 mice. It is filed as in vivo, mouse.
Description: FIG. 4: Immunostainings of mice hippocampus at 4 months of age (PREVENTION GROUP) with microglial Iba-1, astrocyte GFAP, and synaptic synaptophysin antibodies.
FIG. 25: Iba1 immunopositive staining in the mice brain hippocampus at different times of washout (a,b). All sections were immunostained together and automatically with Dako immunostainer and the number of Iba1-immunopositive […] counted stereologically. Statistics done as described in FIG. 10b. (c) Analyses of subtypes of Iba1-immunopositive microglia as described in FIG. 10c.
FIG. 26: GFAP immunopositive staining in the hippocampus of mice brains at different times of washout (a,b). All sections were immunostained together and automatically with Dako immunostainer. Quantitation of GFAP-immunopositive astrocytes was done as described above.
as §2

Data set [7] deals with serum-deprived human neurons. Kind of data set: Aβ42/total Aβ and cytokine levels of serum-deprived human neurons. It is filed as cell-based. How it is done: FIG. 13: VX-765 protects CNS primary human neurons (HPN) against APP- or serum deprivation-mediated neuritic beading. (a) MTT assay with increasing dose of VX-765. (b) Fluorescent micrographs showing homogeneous distribution of EGFP in normal neurons and neuritic beading in APP-transfected neurons. (c) Percentage beading in APP-transfected or serum-deprived neurons treated 1 h before and continuously with stressor (Pre-treatment) or 48 h after stressor (post-beading treatment) with 25 or 50 μM VX-765 or with 5 μM Z-YVAD-fmk Casp1 peptide inhibitor. […] (d-e) HPN secreted or cellular Aβ42/total Aβ38+40+42 (d) (F(3,4)=12.73, p=0.0163, ANOVA, Dunnett's post-hoc compared to Serum+DMSO, *p<0.05), and (e) levels of secreted II-1β, IFN-γ, TNF-α, and II-6 from untreated (+S), serum deprived (−S), or serum-deprived human neurons treated with 25 or 50 μM VX-765.

“Also recorded” adds a separate entry of the source.

The IC50 is the midpoint of a concentration-inhibition curve. Consider `CCO[C@@H]1OC(=O)C[C@@H]1NC(=O)[C@@H]1CCCN1C(=O)[C@@H](NC(=O)c1ccc(N)c(Cl)c1)C(C)(C)C` [VX-765, (S)-1-((S)-2-{[1-(4-amino-3-chloro-phenyl)-methanoyl]-amino}-3,3-dimethyl-butanoyl)-pyrrolidine-2-carboxylic acid ((2R,3S)-2-ethoxy-5-oxo-tetrahydro-furan-3-yl)-amide], for which the IC50 in data set [1] was found to be 52.1 nM. In data set [2], the “blood brain barrier crossing” value is reported as “crossed the blood brain barrier”; the “concentrations in hippocampus and cortex” value is given as “reached physiologically active concentrations”; the “metabolism of the pro-drug” value is on record as “metabolized into VRT-043198”. In addition, in data set [3], the synaptophysin levels entry was “increased synaptophysin levels; also recorded: significantly increased and returned to normal levels”. Moreover, the “open field hyperactivity (distance travelled, quadrant entries)” value in data set [4] (4 months of age (4 week washout)) is recorded as “normal behavior at 4 months of age; also recorded: behave as the vehicle-treated WT mice”. In addition, the open field hyperactivity entry in data set [4] (5 months of age (8 week washout) and thereafter) was “hyperactivity returned by 5 months of age; also recorded: lost at the 8 week washout assessment and thereafter”. Besides, in data set [4] (8 week to 20 week washout), the “% time of movement” value was “did not alter”. In data set [5] (12-week washout), the “Barnes maze ability to distinguish the target area” value was “better ability to distinguish the target area” and the “Barnes maze primary errors” value was “corrected this deficit”. Moreover, in data set [5] (12-week washout (6 months of age)), the “Barnes maze primary latency” value is recorded as “tended towards a better performance”. In data set [5] (20-week washout), the “Barnes maze identifying the target area in probe test” value is listed as “performed better than the Vehicle-treated J20 mice”; the “Barnes maze learning phase” value was “performed normally in the learning phase”; the “Barnes maze primary latency and primary errors” value was “did not reach statistical significance”. Besides, in data set [6] (4 month old J20 brains), the GFAP astrogliosis result was “possibly GFAP astrogliosis” and the “microglial Iba1 positive inflammation” value is recorded as “reduced microglial Iba1 positive inflammation”. Also, the “astrocytic GFAP immunostaining” value in data set [6] (different times of washout) is “does not reach statistical significance”. The “Iba1 positive microglial inflammation” value in data set [6] (hippocampus and cortex, different times of washout) is listed as “strongly decreased microglial inflammation”. Further, the subtype of microglia entry in data set [6] (up to the 12 week washout, hippocampus and cortex) is “restores resting microglia numbers”. Further, the “secreted and cellular Aβ42/total Aβ levels” value in data set [7] (25 μM) is given as “reduced secreted, but not cellular”. Also, the “secreted and cellular Aβ42/total Aβ levels” value in data set [7] (50 μM) is “reduced secreted and cellular”. Also, the “levels of II-1β, IFN-γ, TNF-α, and II-6” value in data set [7] (25 and 50 μM, trend, not statistically significant) is given as “reduced at both concentrations”.
